Measured values reported in patent US20070292403A1, “Methods of treating a neurological disorder with creatine monohydrate” (priority 2006, published 2007).

How the values were obtained:
[1] = test system: subjects with early Parkinson's disease (PD); experiment: Example 2: randomized double-blind futility trial, change in total UPDRS; type: in vivo, human
Method: (§1) Study Design and Randomization. This example was a single arm futility study designed to assess creatine and minocycline. A placebo arm for calibration was included in the example. Eligible subjects were randomly assigned in a 1:1:1 fashion to receive 1) 10 g/day of creatine monohydrate and placebo minocycline, 2) placebo creatine monohydrate and 200 mg/day of minocycline, or 3) placebo creatine monohydrate and placebo minocycline. The primary futility analysis was at 12 months of follow-up, but each subject was followed for 18 months for additional safety information. Subjects and investigators were kept blinded to treatment group.
Participants. […] Two of the three cardinal manifestations of PD (tremor, rigidity, and bradykinesia) were required; these findings had to be asymmetric. The diagnosis of PD must have been made within 5 years of randomization. Women of childbearing potential were required to use adequate birth control and have a negative pregnancy test at baseline. Subjects were excluded if they had any secondary causes of parkinsonism, such as drug induced parkinsonism or structural lesions; had atypical parkinsonian syndromes; gait freezing or impairment in postural reflexes; had prior stereotaxis surgery for PD; used creatine, minocycline, or any investigational agent within 90 days prior to randomization; had known hypersensitivity to creatine or minocycline; used CoQ10 in doses greater than 300 mg 90 days prior to randomization; or had any clinically significant medical condition that could interfere with the subject's ability to safely participate in the study or be followed.
(§2) Dosages. Creatine was administered as 5 g sachets mixed with 8 ounces of liquid taken twice a day and minocycline was administered as 100 mg capsules taken twice a day. Both were taken with meals.
Outcome measures. […] Disability was assessed by the sight investigator, based on impairment in ambulation, activities in daily living, and occupational status. […] Both the site investigator and medical monitors assessed the potential relationship between SAEs and study drug. […]

[2] = parameters: species or system human; conditions: in vivo
Method: (§3) A two-phase open-label study was conducted to better determine an optimal dose of creatine symptomatic subjects with Huntington's disease. A dose-escalation study (10-40 grams per day) was conducted to determine the maximally tolerated dose (MTD) followed by a de-escalation phase to assess whether brain and serum levels of creatine might be maximal at doses lower than the MTD. Ten subjects were enrolled and followed prospectively for two weeks at each done level increasing in 5-gram increments during dose escalation that lasted 13 weeks. Assessments at each visit included UHDRS, EKG, vital signs, clinical safety and research labs. MRI spectroscopy was conducted prior to baseline at peak done (40 grams) and one month after de-escalation to either 30 or 15 grams daily. To determine an optimal dose, pharmacokinetic as well as clinical data were considered. Once the maximal dose was reached, subjects were assigned one of two lower doses previously taking (15 grams a day (n=5) or 30 grams a day (n=5)). Serum creatine was assessed at baseline, at the end of each 2-week dose escalation step and at the end of the de-escalation phase to assess the correspondence between serum and brain levels of creatine at steady state.

[3] = test system: subjects with early Parkinson's disease (PD); experiment: Example 2: safety and tolerability in the early Parkinson's disease trial; type: in vivo, human; conditions: human, in vivo
Method: as §1, §2
Outcome measures. The primary, prespecified outcome measure was the change in the total Unified PD Rating Scale (UPDRS) score from baseline to either the time at which there was sufficient disability to warrant symptomatic therapy for PD or 12 months, whichever came first. Disability was assessed by the sight investigator, based on impairment in ambulation, activities in daily living, and occupational status. The mean change in total UPDRS for each treatment group was compared to a prespecified futility threshold of a 30% reduction in the historically derived change in the total UPDRS, which was based on a placebo arm of a previous clinical trial. Tolerability was defined as the proportion of subjects taking study drug for the full 12 months. All […] adverse events (SAEs) were reviewed by the study medical monitor and an independent medical monitor. Both the site investigator and medical monitors assessed the potential relationship between SAEs and study drug.
Study Procedures. At the screening visit, the purpose and potential risks were explained to potential subjects and each subject gave written consent. […] Blood was obtained for serum chemistry and complete blood count. Participants were reevaluated at 1, 3, 6, 9, and 12 months (±6 days) after the baseline visit using the battery of clinical scales and blood was drawn again at 6 and 12 months.

[4] = Example 1: serum creatine levels and brain creatine by magnetic resonance spectroscopy; type: in vivo, human; conditions: for Increase in absolute creatine concentration by MRS: by week 16, 8 g/day, p<0.05, returned to baseline at week 24
From the text: Study protocol. Subjects were screened within 25 days of randomization (baseline visit). Screening included assessment of eligibility criteria, medical history, physical examination, Unified Huntington's Disease Rating Scale (UHDRS), EKG, DNA analysis, complete blood count, chemistry panel, and urinalysis. Subjects were on study drug (creatine or placebo) for 16 weeks, followed by an 8-week washout. Study visits occurred at baseline, weeks 8, 16, and 24 with telephone contacts at weeks 1, 10 and 20. Physical examination was done at screening and week 16. UHDRS scores, vital signs, adverse event assessment, and safety laboratory tests were repeated at all visits. Blood was collected for serum creatine levels and serum 8-hydroxy-2′-deoxyguanosine (8OH2′dG), a measure of oxidative injury affecting DNA. The later was analyzed in the samples from two sites. Magnetic resonance spectroscopy (MRS; STEAM; TR/TE=6000/20 milliseconds) of frontal cortex (voxel size=56 cc) and occipital cortex (voxel size=18 cc) performed at one site was analyzed for this report. Subject compliance was assessed by wafer counts.

[5] = test system: symptomatic subjects with Huntington's disease; experiment: Example 3: open-label dose escalation (10-40 grams per day), tolerability, safety and UHDRS; type: in vivo, human
Method: as §3

CN(CC(=O)O)C(=N)N [Creatine, creatine monohydrate]
Mean (SD) change in total UPDRS ([1]; baseline to 12 months or time symptomatic therapy needed, creatine 10 g/day, minocycline 200 mg/day, worst change score imputed): 5.6 (8.69) | Futility analysis outcome ([1]; threshold 7.46 (30% less than 10.65 DATATOP historical progression)): could not be rejected as futile | Dose at which serum creatine levels reached a plateau ([2]; human): 30-35 grams/day | Brain levels of creatine in the frontal cortex by MRI spectroscopy [2]: continued increases | Patients with dose reductions [3]: 8 | Increase in absolute creatine concentration by MRS ([4]; frontal cortex): 7.5% | concentration at 16 weeks ([4]; human, serum, oral, 8 g/day, week 16, baseline 46.4 (SD=35.7), SD=259.9, read-out: Average serum creatine level): 382 µM | concentration at 24 weeks ([4]; human, serum, oral, at washout after 8 g/day for 16 weeks, SD=29.5, read-out: Average serum creatine level): 51.8 µM | Increase in absolute creatine concentration by MRS ([4]; occipital cortex): 13% | Dose tolerated by all subjects during dose escalation ([5]; 10 subjects, 5-gram increments, two weeks per dose level, no withdrawals): up to 40 grams/day | Changes in UHDRS subscores ([5]; dose escalation 10-40 grams per day): not significant | Adverse events at high doses ([5]; in vivo): increased numbers of adverse events | Average creatinine level ([5]; in vivo): 1.28 ± 0.16 mg/dL | BUN levels ([5]; in vivo): did not increase | Serious adverse events, laboratory abnormalities, EKG ([5]; in vivo): no serious adverse events, no significant laboratory abnormalities and no EKG alterations | Tolerability at selected dose ([5]; in vivo): excellent tolerability
